Measured values: patent EP0877740B1, “THIOL DERIVATIVES WITH METALLOPEPTIDASE INHIBITORY ACTIVITY” (ZAMBON GROUP S.p.A., priority 1995, dated 1997)

Target: T1, ACE (Oryctolagus cuniculus, UniProt P12822)
T1 construct: ACE (250 mU/ml purified by lung rabbit, EC 3.4.15.1 SIGMA); purchased SIGMA; host or cells: rabbit lung (tissue-purified)
T1 sequence (P12822 34-1310): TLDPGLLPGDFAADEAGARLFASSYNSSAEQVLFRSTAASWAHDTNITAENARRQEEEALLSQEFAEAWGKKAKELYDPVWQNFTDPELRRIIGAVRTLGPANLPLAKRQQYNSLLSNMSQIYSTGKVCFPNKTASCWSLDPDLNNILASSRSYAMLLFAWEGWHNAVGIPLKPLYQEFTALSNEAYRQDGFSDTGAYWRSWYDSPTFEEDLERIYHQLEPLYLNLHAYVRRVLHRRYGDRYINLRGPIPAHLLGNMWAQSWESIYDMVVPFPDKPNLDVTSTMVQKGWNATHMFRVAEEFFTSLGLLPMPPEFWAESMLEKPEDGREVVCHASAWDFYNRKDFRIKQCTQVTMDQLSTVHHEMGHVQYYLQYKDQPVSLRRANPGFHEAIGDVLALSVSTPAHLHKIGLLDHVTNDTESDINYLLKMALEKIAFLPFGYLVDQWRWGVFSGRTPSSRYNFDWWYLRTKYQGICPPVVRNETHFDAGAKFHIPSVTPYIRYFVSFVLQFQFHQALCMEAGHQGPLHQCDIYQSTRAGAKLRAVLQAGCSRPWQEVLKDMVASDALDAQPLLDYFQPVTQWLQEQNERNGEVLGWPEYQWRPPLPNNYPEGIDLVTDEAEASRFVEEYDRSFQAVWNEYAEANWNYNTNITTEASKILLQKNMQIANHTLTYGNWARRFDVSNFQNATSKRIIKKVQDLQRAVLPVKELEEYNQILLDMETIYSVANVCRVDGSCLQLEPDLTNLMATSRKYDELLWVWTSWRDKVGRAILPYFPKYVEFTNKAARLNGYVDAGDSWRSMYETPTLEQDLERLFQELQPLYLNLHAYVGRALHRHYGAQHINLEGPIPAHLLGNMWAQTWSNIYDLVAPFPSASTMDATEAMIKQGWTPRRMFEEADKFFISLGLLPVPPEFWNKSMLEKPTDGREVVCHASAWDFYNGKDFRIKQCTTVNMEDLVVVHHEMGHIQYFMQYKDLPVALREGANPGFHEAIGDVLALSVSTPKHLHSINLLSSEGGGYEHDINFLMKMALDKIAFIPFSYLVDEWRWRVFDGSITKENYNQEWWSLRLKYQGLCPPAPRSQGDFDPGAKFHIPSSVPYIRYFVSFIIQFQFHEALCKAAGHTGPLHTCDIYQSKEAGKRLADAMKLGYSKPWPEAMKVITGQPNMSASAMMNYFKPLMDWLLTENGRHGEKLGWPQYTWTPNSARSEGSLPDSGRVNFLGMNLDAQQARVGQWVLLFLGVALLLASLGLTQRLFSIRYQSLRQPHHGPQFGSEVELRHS
Test: In vitro ACE-inhibitory activity (FAPGG substrate, spectrophotometric)
Format: biochemical
Conditions: ACE purified by lung rabbit, FAPGG 0.8 mM, 37°C
Method: […] of ACE (250 mU/ml purified by lung rabbit, EC 3.4.15.1 SIGMA) were preincubated with 50 µl of the compound of formula I or of the reference compound or related vehicle in thermostated cuvettes at 37°C.
The reaction was started by adding furylacryloylphenylalanylglycylglycine 0.8 mM (FAPGG-SIGMA).
Contemporaneously, by using a Beckman DU-50 spectrophotometer provided with a program for calculating delta A/minutes and regression coefficients of the enzyme kinetics curves, the absorbance at 340 nm was recorded in continuo for 5 minutes.
The percentage of the enzyme inhibition in the preparations treated with the compounds of formula I or with the comparative compounds with respect to the untreated preparations was expressed as IC50 (nM) value.

IC50: 3.2 nM
SMILES: O=C(N[C@@H](Cc1ccc(-c2nccs2)cc1)C(=O)O)[C@@H](CS)Cc1ccccc1 [Compound 16, N-[(2S)-3-mercapto-2-phenylmethylpropionyl]-4-(2-thiazolyl)-L-phenylalanine]
